Results taken from PubChem BioAssay AID2060325 (Molecular Pharmacology Branch, DTP, NCI, 2025).

Test system: SK-OV-3 multi-cell spheroids, viability
Test: Anticancer human tumor SK-OV-3 cell line growth inhibition [IpAb];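 for viability, T/C: viability read after seven days of drug exposure; percent of DMSO vehicle control luminescence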
Settings: for IC50: curve of first compound; for viability, T/C: stronger effect = lower value; active = viability on the fitted dose curve at most 10% of control; inactive = the rest
Outline: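 Multi-cell spheroids of 60% tumour cells, 25% HUVEC and 15% MSC in ultra-low-attachment U-bottom wells, treated with agents combined with ipatasertib or abemaciclib. Half-log ranges top out near clinical Cmax, or 10 microM when Cmax is unknown.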

[1] = second compound 0.1 µM, first compound 0.0316 µM
[2] = second compound 0.1 µM, first compound 0.1 µM
[3] = second compound 0.1 µM, first compound 0.316 µM
[4] = second compound 0.1 µM, first compound 1 µM
[5] = second compound 0.1 µM, first compound 3.16 µM
[6] = second compound 0.1 µM, first compound 10 µM
[7] = second compound 0.316 µM, first compound 0.0316 µM
[8] = second compound 0.316 µM, first compound 0.1 µM
[9] = second compound 0.316 µM, first compound 0.316 µM
[10] = second compound 0.316 µM, first compound 1 µM
[11] = second compound 0.316 µM, first compound 3.16 µM
[12] = second compound 0.316 µM, first compound 10 µM
[13] = second compound 1 µM, first compound 0.0316 µM
[14] = second compound 1 µM, first compound 0.1 µM
[15] = second compound 1 µM, first compound 0.316 µM
[16] = second compound 1 µM, first compound 1 µM
[17] = second compound 1 µM, first compound 3.16 µM
[18] = second compound 1 µM, first compound 10 µM
[19] = second compound 3.16 µM, first compound 0.0316 µM
[20] = second compound 3.16 µM, first compound 0.1 µM
[21] = second compound 3.16 µM, first compound 0.316 µM
[22] = second compound 3.16 µM, first compound 1 µM
[23] = second compound 3.16 µM, first compound 3.16 µM
[24] = second compound 3.16 µM, first compound 10 µM
[25] = second compound 10 µM, first compound 0.0316 µM
[26] = second compound 10 µM, first compound 0.1 µM
[27] = second compound 10 µM, first compound 0.316 µM
[28] = second compound 10 µM, first compound 1 µM
[29] = second compound 10 µM, first compound 3.16 µM
[30] = second compound 10 µM, first compound 10 µM

C=CCn1c(=O)c2cnc(Nc3ccc(N4CCN(C)CC4)cc3)nc2n1-c1cccc(C(C)(C)O)n1 + CCN1CCN(Cc2ccc(Nc3ncc(F)c(-c4cc(F)c5nc(C)n(C(C)C)c5c4)n3)nc2)CC1
inactive: viability, T/C (second compound 0.01 µM, first compound 0.0316 µM) 83.9% | viability, T/C (second compound 0.01 µM, first compound 0.1 µM) 46.6% | viability, T/C (second compound 0.01 µM, first compound 0.316 µM) 13.1% | viability, T/C (second compound 0.0316 µM, first compound 0.0316 µM) 63.7% | viability, T/C (second compound 0.0316 µM, first compound 0.1 µM) 36% | viability, T/C (second compound 0.0316 µM, first compound 0.316 µM) 12.1% | viability, T/C [1] 49.2% | viability, T/C [2] 36.3% | viability, T/C [3] 14.4% | viability, T/C [7] 53.5% | viability, T/C [8] 34.8% | viability, T/C [9] 17.9% | viability, T/C [10] 15% | viability, T/C [11] 10.3% | viability, T/C [12] 10.5% | viability, T/C [13] 36.4% | viability, T/C [14] 29.3% | viability, T/C [15] 19.7% | viability, T/C [16] 16.9% | viability, T/C [17] 17.4% | viability, T/C [18] 15.6%
39.3 nM: IC50 (second compound 0.316 µM)
< 31.6 nM: IC50 (second compound 0.1 µM) | IC50 (second compound 1 µM)
active: viability, T/C (second compound 0.01 µM, first compound 1 µM) 7.77% | viability, T/C (second compound 0.01 µM, first compound 3.16 µM) 4.03% | viability, T/C (second compound 0.01 µM, first compound 10 µM) 6.24% | viability, T/C (second compound 0.0316 µM, first compound 1 µM) 8.26% | viability, T/C (second compound 0.0316 µM, first compound 3.16 µM) 6.84% | viability, T/C (second compound 0.0316 µM, first compound 10 µM) 6.66% | viability, T/C [4] 9.93% | viability, T/C [5] 5.86% | viability, T/C [6] 8.17%
55.9 nM: IC50 (second compound 0.0316 µM)
90 nM: IC50 (second compound 0.01 µM)

CCCS(=O)(=O)Nc1ccc(F)c(C(=O)c2c[nH]c3ncc(-c4ccc(Cl)cc4)cc23)c1F + CC(C)NCC(C(=O)N1CCN(c2ncnc3c2C(C)CC3O)CC1)c1ccc(Cl)cc1
inactive: viability, T/C [1] 70.2% | viability, T/C [2] 74.1% | viability, T/C [3] 67.5% | viability, T/C [4] 73.9% | viability, T/C [5] 64.3% | viability, T/C [6] 23.3% | viability, T/C [7] 38.8% | viability, T/C [8] 36.5% | viability, T/C [9] 38.1% | viability, T/C [10] 36.1% | viability, T/C [11] 28.2% | viability, T/C [12] 13.9% | viability, T/C [13] 20.5% | viability, T/C [14] 22.4% | viability, T/C [15] 21.3% | viability, T/C [16] 17.9% | viability, T/C [17] 15.3% | viability, T/C [18] 6.91% | viability, T/C [19] 17.1% | viability, T/C [20] 18.6% | viability, T/C [21] 15.7% | viability, T/C [22] 15.7% | viability, T/C [23] 15.1% | viability, T/C [24] 6.79% | viability, T/C [25] 8.73%
< 31.6 nM: IC50 (second compound 0.316 µM) | IC50 (second compound 1 µM) | IC50 (second compound 3.16 µM) | IC50 (second compound 10 µM)
active: viability, T/C [26] 9.5% | viability, T/C [27] 9.69% | viability, T/C [28] 8.84% | viability, T/C [29] 9.71% | viability, T/C [30] 2.52%
4770 nM: IC50 (second compound 0.1 µM)

Cn1ncc(Cl)c1-c1cc(C(=O)NC(CN)Cc2cccc(F)c2)sc1Cl (stereo not given) + CC(C)NCC(C(=O)N1CCN(c2ncnc3c2C(C)CC3O)CC1)c1ccc(Cl)cc1
inactive: viability, T/C [1] 62.6% | viability, T/C [2] 38.1% | viability, T/C [3] 25% | viability, T/C [4] 16.4% | viability, T/C [7] 36.4% | viability, T/C [8] 28.2% | viability, T/C [9] 19.7% | viability, T/C [10] 13.8% | viability, T/C [13] 20.7% | viability, T/C [14] 18.3% | viability, T/C [15] 17.6% | viability, T/C [16] 13.6% | viability, T/C [19] 15.7% | viability, T/C [20] 15.9% | viability, T/C [21] 15.9% | viability, T/C [22] 12.9% | viability, T/C [25] 10.6% | viability, T/C [26] 11.4%
58.8 nM: IC50 (second compound 0.1 µM)
< 31.6 nM: IC50 (second compound 0.316 µM) | IC50 (second compound 1 µM) | IC50 (second compound 3.16 µM) | IC50 (second compound 10 µM)
active: viability, T/C [5] 8.41% | viability, T/C [6] 0.21% | viability, T/C [11] 8.71% | viability, T/C [12] 0.38% | viability, T/C [17] 8.68% | viability, T/C [18] 0.2% | viability, T/C [23] 6.61% | viability, T/C [24] 0.36% | viability, T/C [27] 9.32% | viability, T/C [28] 6.87% | viability, T/C [29] 4.93% | viability, T/C [30] 0.28%

CC(C)(C)c1cnc(CSc2cnc(NC(=O)C3CCNCC3)s2)o1 + CCN1CCN(Cc2ccc(Nc3ncc(F)c(-c4cc(F)c5nc(C)n(C(C)C)c5c4)n3)nc2)CC1
147 nM: IC50 (second compound 0.1 µM)
196 nM: IC50 (second compound 0.01 µM)
inactive: viability, T/C (second compound 0.01 µM, first compound 0.00949 µM) 99.3% | viability, T/C (second compound 0.01 µM, first compound 0.03 µM) 109% | viability, T/C (second compound 0.01 µM, first compound 0.0949 µM) 104% | viability, T/C (second compound 0.01 µM, first compound 0.3 µM) 18.4% | viability, T/C (second compound 0.0316 µM, first compound 0.00949 µM) 80.2% | viability, T/C (second compound 0.0316 µM, first compound 0.03 µM) 87.8% | viability, T/C (second compound 0.0316 µM, first compound 0.0949 µM) 88.3% | viability, T/C (second compound 0.0316 µM, first compound 0.3 µM) 14% | viability, T/C (second compound 0.1 µM, first compound 0.00949 µM) 63% | viability, T/C (second compound 0.1 µM, first compound 0.03 µM) 70.4% | viability, T/C (second compound 0.1 µM, first compound 0.0949 µM) 80.5% | viability, T/C (second compound 0.1 µM, first compound 0.3 µM) 15.7% | viability, T/C (second compound 0.316 µM, first compound 0.00949 µM) 60.1% | viability, T/C (second compound 0.316 µM, first compound 0.03 µM) 62% | viability, T/C (second compound 0.316 µM, first compound 0.0949 µM) 63.4% | viability, T/C (second compound 0.316 µM, first compound 0.3 µM) 17.3% | viability, T/C (second compound 1 µM, first compound 0.00949 µM) 44.7% | viability, T/C (second compound 1 µM, first compound 0.03 µM) 51.1% | viability, T/C (second compound 1 µM, first compound 0.0949 µM) 50.1% | viability, T/C (second compound 1 µM, first compound 0.3 µM) 12.7%
< 9.49 nM: IC50 (second compound 1 µM)
168 nM: IC50 (second compound 0.0316 µM)
active: viability, T/C (second compound 0.01 µM, first compound 0.949 µM) 0.62% | viability, T/C (second compound 0.01 µM, first compound 3 µM) 1.2% | viability, T/C (second compound 0.0316 µM, first compound 0.949 µM) 1.38% | viability, T/C (second compound 0.0316 µM, first compound 3 µM) 1.32% | viability, T/C (second compound 0.1 µM, first compound 0.949 µM) 0.84% | viability, T/C (second compound 0.1 µM, first compound 3 µM) 0.9% | viability, T/C (second compound 0.316 µM, first compound 0.949 µM) 0.83% | viability, T/C (second compound 0.316 µM, first compound 3 µM) 1.1% | viability, T/C (second compound 1 µM, first compound 0.949 µM) 1.41% | viability, T/C (second compound 1 µM, first compound 3 µM) 1.15%
129 nM: IC50 (second compound 0.316 µM)
